# Experimental data from article PMC5772236, “In Vitro Enzymatic Depolymerization of Lignin with Release of Syringyl, Guaiacyl, and Tricin Units” (Applied and Environmental Microbiology, 2018).
# Key:
# Type in all cases: biochemical
# NaGSTNU = molecular target: T1, NaGSTNU (Novosphingobium aromaticivorans, UniProt Q2G542); assay: coupled assay with and without enzyme, HPLC of products; settings: 25 mM Tris, 2% DMSO, pH 8.0, GSH co-substrate; GS-HPV formed in situ by LigD/LigN/LigE/LigF; both beta-epimers cleaved
# T1 construct: gene Saro_2595; recombinant, E. coli B834; N-terminal His tag cut by Tev protease; cloned from genomic DNA
# T1 sequence (Q2G542 1-288): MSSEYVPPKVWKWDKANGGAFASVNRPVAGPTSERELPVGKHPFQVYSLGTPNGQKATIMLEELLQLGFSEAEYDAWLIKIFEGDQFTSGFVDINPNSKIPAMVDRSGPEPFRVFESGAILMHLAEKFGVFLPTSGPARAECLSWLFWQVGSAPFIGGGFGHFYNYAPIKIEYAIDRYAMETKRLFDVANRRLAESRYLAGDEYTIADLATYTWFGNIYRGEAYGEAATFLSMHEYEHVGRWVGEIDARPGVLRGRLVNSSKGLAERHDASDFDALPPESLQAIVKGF
# LigG = molecular target: T2, LigG (Sphingomonas paucimobilis, UniProt Q9WXJ9); assay: coupled assay, HPLC of products; settings: 25 mM Tris, 2% DMSO, pH 8.0, GSH co-substrate; GS-HPV formed in situ by LigD/LigN/LigE/LigF; epimers not both completely cleaved
# T2 construct: recombinant, E. coli, codon optimized; His tag cut by Tev protease (procedure cited)
# T2 sequence (Q9WXJ9 1-265): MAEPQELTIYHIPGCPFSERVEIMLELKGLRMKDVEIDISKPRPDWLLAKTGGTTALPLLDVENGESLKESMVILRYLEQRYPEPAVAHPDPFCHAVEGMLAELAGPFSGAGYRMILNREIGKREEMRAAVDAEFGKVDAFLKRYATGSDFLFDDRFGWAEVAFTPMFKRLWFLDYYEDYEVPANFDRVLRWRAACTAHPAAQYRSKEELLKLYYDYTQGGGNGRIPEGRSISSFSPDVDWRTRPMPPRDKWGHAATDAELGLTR
# AvGR = molecular target: T3, AvGR (Allochromatium vinosum, UniProt D3RSV1); assay: coupled assay with and without AvGR, HPLC of products; settings: 25 mM Tris, 2% DMSO, pH 8.0; NADH formed in situ by LigD/LigN; GSSG co-substrate
# T3 construct: gene Alvin_1323; recombinant, E. coli B834, codon optimized, pVP302K; N-terminal His tag cut by Tev protease
# T3 sequence (D3RSV1 1-458): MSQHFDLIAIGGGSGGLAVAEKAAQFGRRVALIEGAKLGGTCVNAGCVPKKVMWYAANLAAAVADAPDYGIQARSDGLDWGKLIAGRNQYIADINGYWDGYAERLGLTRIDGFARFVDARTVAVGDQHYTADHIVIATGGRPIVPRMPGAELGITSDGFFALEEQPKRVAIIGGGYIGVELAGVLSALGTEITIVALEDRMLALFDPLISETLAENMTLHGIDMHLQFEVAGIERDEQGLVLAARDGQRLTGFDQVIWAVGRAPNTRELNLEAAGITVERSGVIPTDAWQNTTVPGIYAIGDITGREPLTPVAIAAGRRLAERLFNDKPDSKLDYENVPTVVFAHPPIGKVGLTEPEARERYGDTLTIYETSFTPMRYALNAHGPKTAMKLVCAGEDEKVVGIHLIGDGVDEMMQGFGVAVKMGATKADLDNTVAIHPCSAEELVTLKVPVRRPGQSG
smiles,measurement,setting,value
"COc1cc(C(=O)C(CO)SC[C@H](NC(=O)CC[C@H](N)C(=O)O)C(=O)NCC(=O)O)ccc1O (mixture of isomers) [GS-HPV, β-S-glutathionyl-γ-hydroxypropiovanillone]","coupled assay with and without enzyme, HPLC of products",NaGSTNU,the absence of NaGSTNU prevented the conversion of GS-HPV to HPV
same,"coupled assay, HPLC of products",LigG,LigG is not able to completely cleave both β-epimers of GS-HPV in vitro
NC(=O)C1=CN([C@@H]2O[C@H](COP(=O)(O)OP(=O)(O)OC[C@H]3O[C@@H](n4cnc5c(N)ncnc54)[C@H](O)[C@@H]3O)[C@@H](O)[C@H]2O)C=CC1 [NADH],"coupled assay with and without AvGR, HPLC of products",AvGR,the presence of AvGR is sufficient to recycle the cosubstrates NAD^+ and GSH
